Laboratory results as given in publication doi:10.1101/2020.06.24.169508v1 (biorxiv, 2020).

Assays:
[1] = target: T1, VhChiP (chitooligosaccharide-specific porin, chitoporin) (Vibrio harveyi, UniProt L0RVU0); test: intrinsic tryptophan fluorescence titration; format: binding; conditions: 20 mM phosphate pH 7.4, 0.2% LDAO, 25 °C; one-site fit
T1 sequence (L0RVU0 26-375): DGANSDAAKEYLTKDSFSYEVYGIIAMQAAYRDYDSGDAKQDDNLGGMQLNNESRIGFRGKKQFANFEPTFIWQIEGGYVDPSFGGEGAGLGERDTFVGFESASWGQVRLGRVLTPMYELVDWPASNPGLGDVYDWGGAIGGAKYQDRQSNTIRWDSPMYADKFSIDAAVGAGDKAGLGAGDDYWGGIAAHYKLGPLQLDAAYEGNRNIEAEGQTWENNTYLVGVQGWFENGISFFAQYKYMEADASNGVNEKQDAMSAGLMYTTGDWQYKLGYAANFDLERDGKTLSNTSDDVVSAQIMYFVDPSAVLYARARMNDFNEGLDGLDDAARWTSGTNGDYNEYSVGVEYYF

[2] = target: T1, VhChiP (chitooligosaccharide-specific porin, chitoporin); test: biochemical; conditions: read-out: WT ΔTm (CD)
[3] = target: T1, VhChiP (chitooligosaccharide-specific porin, chitoporin); test: biochemical; conditions: read-out: WT ΔTm (fluorescence)

## CC(=O)N[C@H]1[C@H](O[C@H]2[C@H](O)[C@@H](NC(C)=O)C(O)O[C@@H]2CO)O[C@H](CO)[C@@H](O)[C@@H]1O (stereo partly shown) [Chitobiose]
[1]
  K: 0.1 ± 0.04 ×10^5 M^-1
[2]
  ΔTm at 100 µM: 2.1 °C
[3]
  ΔTm at 1000 µM: 4 °C

## CC(=O)N[C@H]1[C@H](O[C@H]2[C@H](O)[C@@H](NC(C)=O)[C@H](O[C@H]3[C@H](O)[C@@H](NC(C)=O)C(O)O[C@@H]3CO)O[C@@H]2CO)O[C@H](CO)[C@@H](O[C@@H]2O[C@H](CO)[C@@H](O[C@@H]3O[C@H](CO)[C@@H](O[C@@H]4O[C@H](CO)[C@@H](O)[C@H](O)[C@H]4NC(C)=O)[C@H](O)[C@H]3NC(C)=O)[C@H](O)[C@H]2NC(C)=O)[C@@H]1O (stereo partly shown) [Chitohexaose]
[1]
  K: 13 ± 0.5 ×10^5 M^-1
[2]
  ΔTm at 100 µM: 7 °C
[3]
  ΔTm at 1000 µM: 8 °C

## CC(=O)N[C@H]1[C@H](O[C@H]2[C@H](O)[C@@H](NC(C)=O)[C@H](O[C@H]3[C@H](O)[C@@H](NC(C)=O)C(O)O[C@@H]3CO)O[C@@H]2CO)O[C@H](CO)[C@@H](O[C@@H]2O[C@H](CO)[C@@H](O[C@@H]3O[C@H](CO)[C@@H](O)[C@H](O)[C@H]3NC(C)=O)[C@H](O)[C@H]2NC(C)=O)[C@@H]1O (stereo partly shown) [Chitopentaose]
[1]
  K: 3.8 ± 0.2 ×10^5 M^-1
[2]
  ΔTm at 100 µM: 5.7 °C
[3]
  ΔTm at 1000 µM: 6 °C

## CC(=O)N[C@H]1[C@H](O[C@H]2[C@H](O)[C@@H](NC(C)=O)C(O)O[C@@H]2CO)O[C@H](CO)[C@@H](O[C@@H]2O[C@H](CO)[C@@H](O[C@@H]3O[C@H](CO)[C@@H](O)[C@H](O)[C@H]3NC(C)=O)[C@H](O)[C@H]2NC(C)=O)[C@@H]1O (stereo partly shown) [Chitotetraose]
[1]
  K: 1.4 ± 0.01 ×10^5 M^-1
[2]
  ΔTm at 100 µM: 3.8 °C
[3]
  ΔTm at 1000 µM: 5 °C

## CC(=O)N[C@H]1[C@H](O[C@H]2[C@H](O)[C@@H](NC(C)=O)C(O)O[C@@H]2CO)O[C@H](CO)[C@@H](O[C@@H]2O[C@H](CO)[C@@H](O)[C@H](O)[C@H]2NC(C)=O)[C@@H]1O (stereo partly shown) [Chitotriose]
[1]
  K: 0.5 ± 0.03 ×10^5 M^-1
[2]
  ΔTm at 100 µM: 3.2 °C
[3]
  ΔTm at 1000 µM: 4 °C

## CC(=O)N[C@H]1C(O)O[C@H](CO)[C@@H](O)[C@@H]1O (stereo partly drawn) [D-GlcNAc]
[3]
  ΔTm at 1000 µM: 2 °C
